Experimental data from ChEMBL document CHEMBL1201862, “PubChem BioAssay data set” (2004).
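Values below derive from 48-hour exposures of cells grown in 96-well plates, with endpoints linearly interpolated between the two concentrations bracketing the appropriate inhibition level. The concentration for 50% growth inhibition is given as GI50.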 Active and inactive are the calls of the source. Rule as the data show it: active = GI50 up to about 1.1 µM and inactive = higher.

Columns and labels:
Assay in all cases: DTP human tumour cell line panel, 48 h
[1] = test system: 786-0
[2] = test system: A549
[3] = test system: ACHN
[4] = test system: BT-549
[5] = test system: CAKI-1
[6] = test system: CCRF-CEM
[7] = test system: COLO 205
[8] = test system: DU-145
[9] = test system: EKVX
[10] = test system: HCT-116
[11] = test system: HCT-15
[12] = test system: HL-60
[13] = test system: HOP-62
[14] = test system: HOP-92
[15] = test system: HT-29
[16] = test system: Hs-578T
[17] = test system: IGROV-1
[18] = test system: K562
[19] = test system: KM12
[20] = test system: LOX IMVI
[21] = test system: M14
[22] = test system: MCF7
[23] = test system: MDA-MB-435
[24] = test system: MDA-N
[25] = test system: MOLT-4
[26] = test system: Malme-3M
[27] = test system: NCI-H226
[28] = test system: NCI-H23
[29] = test system: NCI-H460
[30] = test system: NCI-H522
[31] = test system: NCI/ADR-RES
[32] = test system: OVCAR-3
[33] = test system: OVCAR-4
[34] = test system: OVCAR-5
[35] = test system: OVCAR-8
[36] = test system: PC-3
[37] = test system: RPMI-8226
[38] = test system: SF-268
[39] = test system: SF-295
[40] = test system: SK-MEL-28
[41] = test system: SK-MEL-2
[42] = test system: SK-MEL-5
[43] = test system: SK-OV-3
[44] = test system: SN12C
[45] = test system: SNB-19
[46] = test system: SNB-75
[47] = test system: SR
[48] = test system: SW-620
[49] = test system: T47D
[50] = test system: TK-10
[51] = test system: U-251
[52] = test system: UACC-257
[53] = test system: UACC-62
[54] = test system: UO-31
[55] = test system: A498
[56] = test system: HCC 2998
[57] = test system: MDA-MB-231
[58] = test system: RXF 393
[59] = test system: SF-539

## Cc1ccc(S(=O)(=O)N/N=C2/C3CCC(C3)C2c2ccccc2)cc1 (stereo not given)
[1]
  GI50: > 100 µM (inactive)
[2]
  GI50: > 100 µM (inactive)
[3]
  GI50: > 100 µM (inactive)
[4]
  GI50: > 100 µM (inactive)
[5]
  GI50: > 100 µM (inactive)
[6]
  GI50: > 100 µM (inactive)
[7]
  GI50: > 100 µM (inactive)
[8]
  GI50: > 100 µM (inactive)
[9]
  GI50: > 100 µM (inactive)
[10]
  GI50: > 100 µM (inactive)
[11]
  GI50: > 100 µM
[12]
  GI50: > 100 µM (inactive)
[13]
  GI50: > 100 µM (inactive)
[14]
  GI50: > 100 µM (inactive)
[15]
  GI50: > 100 µM (inactive)
[16]
  GI50: > 100 µM (inactive)
[17]
  GI50: > 100 µM (inactive)
[18]
  GI50: > 100 µM (inactive)
[19]
  GI50: > 100 µM (inactive)
[20]
  GI50: > 100 µM (inactive)
[21]
  GI50: > 100 µM (inactive)
[22]
  GI50: > 100 µM (inactive)
[23]
  GI50: > 100 µM (inactive)
[24]
  GI50: > 100 µM (inactive)
[25]
  GI50: > 100 µM (inactive)
[26]
  GI50: > 100 µM (inactive)
[27]
  GI50: > 100 µM (inactive)
[28]
  GI50: > 100 µM (inactive)
[29]
  GI50: > 100 µM (inactive)
[30]
  GI50: > 100 µM (inactive)
[31]
  GI50: > 100 µM (inactive)
[32]
  GI50: > 100 µM (inactive)
[33]
  GI50: > 100 µM (inactive)
[34]
  GI50: > 100 µM (inactive)
[35]
  GI50: > 100 µM (inactive)
[36]
  GI50: > 100 µM (inactive)
[37]
  GI50: > 100 µM (inactive)
[38]
  GI50: > 100 µM (inactive)
[39]
  GI50: > 100 µM (inactive)
[40]
  GI50: > 100 µM (inactive)
[41]
  GI50: > 100 µM (inactive)
[42]
  GI50: > 100 µM (inactive)
[43]
  GI50: > 100 µM (inactive)
[44]
  GI50: > 100 µM (inactive)
[45]
  GI50: > 100 µM (inactive)
[46]
  GI50: > 100 µM (inactive)
[47]
  GI50: > 100 µM (inactive)
[48]
  GI50: > 100 µM (inactive)
[49]
  GI50: > 100 µM (inactive)
[50]
  GI50: > 100 µM (inactive)
[51]
  GI50: > 100 µM (inactive)
[52]
  GI50: > 100 µM (inactive)
[53]
  GI50: > 100 µM (inactive)
[54]
  GI50: > 100 µM (inactive)

## COc1ccc(C(=O)c2[nH]c(Nc3ccc(Cl)cc3)c(C(=S)Nc3ccccc3)c2N)cc1
[1]
  GI50: > 100 µM (inactive)
[55]
  GI50: > 100 µM (inactive)
[2]
  GI50: > 100 µM (inactive)
[3]
  GI50: > 100 µM (inactive)
[4]
  GI50: > 100 µM (inactive)
[5]
  GI50: > 100 µM (inactive)
[6]
  GI50: > 100 µM (inactive)
[7]
  GI50: > 100 µM (inactive)
[8]
  GI50: > 100 µM (inactive)
[9]
  GI50: > 100 µM (inactive)
[56]
  GI50: > 100 µM (inactive)
[10]
  GI50: 60.7 µM (inactive)
[11]
  GI50: > 100 µM
[12]
  GI50: > 100 µM (inactive)
[13]
  GI50: > 100 µM (inactive)
[14]
  GI50: > 100 µM (inactive)
[15]
  GI50: 24.8 µM (inactive)
[16]
  GI50: > 100 µM (inactive)
[17]
  GI50: > 100 µM (inactive)
[18]
  GI50: > 100 µM (inactive)
[19]
  GI50: > 100 µM (inactive)
[20]
  GI50: > 100 µM (inactive)
[22]
  GI50: 70.5 µM (inactive)
[57]
  GI50: > 100 µM (inactive)
[23]
  GI50: > 100 µM (inactive)
[24]
  GI50: > 100 µM (inactive)
[25]
  GI50: > 100 µM (inactive)
[26]
  GI50: > 100 µM (inactive)
[27]
  GI50: 47 µM (inactive)
[28]
  GI50: > 100 µM (inactive)
[29]
  GI50: > 100 µM (inactive)
[30]
  GI50: > 100 µM (inactive)
[31]
  GI50: > 100 µM (inactive)
[32]
  GI50: > 100 µM (inactive)
[33]
  GI50: 23.8 µM (inactive)
[34]
  GI50: > 100 µM (inactive)
[35]
  GI50: > 100 µM (inactive)
[58]
  GI50: > 100 µM (inactive)
[38]
  GI50: > 100 µM (inactive)
[39]
  GI50: > 100 µM (inactive)
[59]
  GI50: > 100 µM (inactive)
[40]
  GI50: 22.8 µM (inactive)
[41]
  GI50: > 100 µM (inactive)
[42]
  GI50: > 100 µM (inactive)
[43]
  GI50: > 100 µM (inactive)
[44]
  GI50: > 100 µM (inactive)
[45]
  GI50: > 100 µM (inactive)
[46]
  GI50: 44 µM (inactive)
[47]
  GI50: > 100 µM (inactive)
[48]
  GI50: > 100 µM (inactive)
[49]
  GI50: > 100 µM (inactive)
[50]
  GI50: > 100 µM (inactive)
[52]
  GI50: > 100 µM (inactive)
[53]
  GI50: > 100 µM (inactive)
[54]
  GI50: > 100 µM (inactive)

## COC(=O)/C1=C/c2c([nH]c3ccccc23)/C(C(=O)OC)=C\c2c1[nH]c1ccccc21 [CAULERPIN]
[1]
  GI50: 11.2 µM (inactive)
[55]
  GI50: 39.2 µM (inactive)
[2]
  GI50: 33.3 µM (inactive)
[3]
  GI50: 22.2 µM (inactive)
[4]
  GI50: 25.6 µM (inactive)
[5]
  GI50: 37.9 µM (inactive)
[7]
  GI50: > 50 µM (inactive)
[8]
  GI50: 42 µM (inactive)
[9]
  GI50: > 50 µM (inactive)
[10]
  GI50: 14.2 µM (inactive)
[11]
  GI50: 22 µM
[13]
  GI50: 10.9 µM (inactive)
[16]
  GI50: 16.8 µM (inactive)
[17]
  GI50: 7.53 µM (inactive)
[19]
  GI50: 35.2 µM (inactive)
[20]
  GI50: 18.7 µM (inactive)
[21]
  GI50: 25.2 µM (inactive)
[22]
  GI50: 10.3 µM (inactive)
[57]
  GI50: 13.7 µM (inactive)
[23]
  GI50: 14.7 µM (inactive)
[24]
  GI50: 15.5 µM (inactive)
[26]
  GI50: 12.9 µM (inactive)
[27]
  GI50: > 50 µM (inactive)
[28]
  GI50: 38.1 µM (inactive)
[29]
  GI50: 13.3 µM (inactive)
[30]
  GI50: 6.08 µM (inactive)
[31]
  GI50: > 50 µM (inactive)
[32]
  GI50: 24.8 µM (inactive)
[34]
  GI50: > 50 µM (inactive)
[35]
  GI50: 26.6 µM (inactive)
[58]
  GI50: 12.7 µM (inactive)
[38]
  GI50: 19.5 µM (inactive)
[39]
  GI50: 40.3 µM (inactive)
[59]
  GI50: 33.5 µM (inactive)
[41]
  GI50: 14.4 µM (inactive)
[42]
  GI50: 28.8 µM (inactive)
[43]
  GI50: > 50 µM (inactive)
[44]
  GI50: 34.4 µM (inactive)
[45]
  GI50: 33.7 µM (inactive)
[48]
  GI50: 34.4 µM (inactive)
[49]
  GI50: 20.2 µM (inactive)
[50]
  GI50: 32.6 µM (inactive)
[51]
  GI50: 19.5 µM (inactive)
[52]
  GI50: > 50 µM (inactive)
[53]
  GI50: 19.9 µM (inactive)
[54]
  GI50: 7.6 µM (inactive)
